The target of series [1] is T1, Dopamine transporter (DAT) (Rattus norvegicus, UniProt P23977).
T1 construct: striatum and frontal cortex dissected from frozen Sprague-Dawley rat brains (Pel-Freez, Rogers, Ark.); tissue Pel-Freez, Rogers, Ark; host or cells: rat striatum membranes (frozen Sprague-Dawley rat brains)
As to the kind of experiment: Displacement of [125I]RTI-55 binding at dopamine transport sites in rat striatum membranes. The settings on record: for binding affinity at DAT (in words): summary of Table 1. (In general: Loss of bound radioactivity is the signal in a displacement assay; it reports binding, not function.)

Series [2] addresses T2, serotonin transporter (SERT) (Rattus norvegicus, UniProt P31652).
T2 construct: striatum and frontal cortex dissected from frozen Sprague-Dawley rat brains (Pel-Freez, Rogers, Ark.); tissue Pel-Freez, Rogers, Ark; host or cells: rat frontal cortex membranes (frozen Sprague-Dawley rat brains)
Nature of the series: Displacement of [3H]paroxetine binding at 5-HT transport sites in rat frontal cortex membranes. Particulars: for Ratio SERT/DAT: SERT binding value divided by DAT binding value; for binding affinity at SERT (in words): summary of Table 1.

[3] abbreviates: [125I]RTI-55 10 pM, rat striatum membranes, mean ± S.E.M., at least three experiments, tested as racemates, read-out: Binding (nM) DAT (converted).
[4] abbreviates: [3H]paroxetine 0.4 nM, rat frontal cortex membranes, Cheng-Prusoff, mean ± S.E.M., tested as racemates, read-out: Binding (nM) SERT (converted).

Each structure is given as a SMILES string. Where two headings read alike, the source gives them in different places.

T2 sequence (P31652 whole entry): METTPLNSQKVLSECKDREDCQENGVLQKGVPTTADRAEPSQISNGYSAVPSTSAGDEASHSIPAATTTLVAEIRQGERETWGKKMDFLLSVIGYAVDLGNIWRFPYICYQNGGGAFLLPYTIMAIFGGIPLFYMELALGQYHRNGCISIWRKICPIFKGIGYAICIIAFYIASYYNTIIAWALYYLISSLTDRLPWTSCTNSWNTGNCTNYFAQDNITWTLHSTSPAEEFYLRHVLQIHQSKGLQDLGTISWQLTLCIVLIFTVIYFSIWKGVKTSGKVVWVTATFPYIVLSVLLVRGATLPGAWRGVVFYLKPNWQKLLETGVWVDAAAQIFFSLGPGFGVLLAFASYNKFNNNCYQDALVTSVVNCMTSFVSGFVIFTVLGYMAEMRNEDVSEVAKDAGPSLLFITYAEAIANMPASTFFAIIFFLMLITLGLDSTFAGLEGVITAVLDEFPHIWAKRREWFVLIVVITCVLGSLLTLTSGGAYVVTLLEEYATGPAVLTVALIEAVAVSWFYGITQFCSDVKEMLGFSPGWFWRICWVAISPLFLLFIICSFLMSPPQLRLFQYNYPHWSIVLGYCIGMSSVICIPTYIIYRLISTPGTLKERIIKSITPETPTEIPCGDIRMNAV
T1 sequence (P23977 whole entry): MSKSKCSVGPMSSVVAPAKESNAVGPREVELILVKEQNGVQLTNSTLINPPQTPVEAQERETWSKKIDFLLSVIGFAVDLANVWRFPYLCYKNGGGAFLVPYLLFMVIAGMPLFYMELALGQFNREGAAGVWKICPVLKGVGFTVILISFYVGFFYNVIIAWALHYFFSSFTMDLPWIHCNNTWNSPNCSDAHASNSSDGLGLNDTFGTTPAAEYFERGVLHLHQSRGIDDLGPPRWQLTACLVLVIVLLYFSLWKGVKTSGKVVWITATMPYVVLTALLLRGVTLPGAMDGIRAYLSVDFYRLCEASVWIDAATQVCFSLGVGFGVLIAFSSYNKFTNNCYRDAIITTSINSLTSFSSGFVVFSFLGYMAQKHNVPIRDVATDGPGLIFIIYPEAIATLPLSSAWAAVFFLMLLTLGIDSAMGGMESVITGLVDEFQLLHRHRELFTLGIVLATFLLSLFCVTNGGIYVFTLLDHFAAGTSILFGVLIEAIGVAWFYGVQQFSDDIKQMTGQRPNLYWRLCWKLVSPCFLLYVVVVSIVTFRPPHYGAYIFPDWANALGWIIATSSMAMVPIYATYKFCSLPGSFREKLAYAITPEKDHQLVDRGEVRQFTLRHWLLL

The compound `CCC(=O)[C@H]1[C@@H](c2ccc(C(C)C)cc2)C[C@@H]2CC[C@H]1N(C)C2` (racemic) [12c, 3β-(4-Isopropylphenyl)-6-methyl-4β-propionyl-6-azabicyclo[3.2.2]nonane] had an IC50 in series [1] of 7500 nM. Also, in series [2], the Ki was 1760 nM and the “Ratio SERT/DAT” value turned out to be 0.23.
In series [1], `C=C(C)c1ccc([C@H]2C[C@@H]3CC[C@H]([C@H]2C(=O)CC)N(C)C3)cc1` (racemic) [12f, 6-Methyl-4β-propionyl-3β-(4-isopropenylphenyl)-6-azabicyclo[3.2.2]nonane] gave an IC50 of 880 nM. Besides, in series [2], the Ki was 32.8 nM and the “Ratio SERT/DAT” value came to 0.03. Moreover, the “selectivity for SERT” value in series [2] (SERT versus DAT binding) was “most selective for SERT”.
In series [1], `CCC(=O)[C@H]1[C@@H](c2ccc(C)cc2)[C@H](C)[C@@H]2CC[C@H]1N(C)C2` (racemic) [12g, 2α,6-Dimethyl-4β-propionyl-3β-(p-tolyl)-6-azabicyclo[3.2.2]nonane] gave an IC50 of 1830 nM. In addition, the Ki in series [2] was greater than 2500 nM.
As for `C=C(C)c1ccc([C@@H]2C[C@@H]3CC[C@@H](NC3)[C@H]2C(=O)CC)cc1` (racemic) [18b, 4β-Propionyl-3α-(4-isopropenylphenyl)-6-azabicyclo[3.2.2]nonane], the IC50 in series [1] (setting [3]) is 370 nM. In series [1], the “binding affinity at DAT (in words)” value is reported as “relatively strong binding”. In addition, in series [2], the “Ratio SERT/DAT” value is listed as 0.02 and the “binding affinity at SERT (in words)” value was “relatively strong binding”. Besides, the Ki in series [2] (setting [4]) is 6.48 nM.
In series [1], `CCC(=O)[C@@H]1C2CCC(C[C@@H]1c1ccc(C)cc1)CN2C` (relative stereo) [12a, 6-Methyl-4β-propionyl-3β-(p-tolyl)-6-azabicyclo[3.2.2]nonane] displayed an IC50 of 117 ± 13 nM. In series [2], the Ki was 2230 ± 410 nM and the “Ratio SERT/DAT” value worked out at 19.
Turning to `CCC(=O)[C@@H]1C2CCC(C[C@@H]1c1ccc3ccccc3c1)CN2C` (relative stereo) [12b, 6-Methyl-3β-(2-naphthyl)-4β-propionyl-6-azabicyclo[3.2.2]nonane], in series [1], the IC50 is 2.8 nM and the “binding affinity at DAT (in words)” value was “strongest binding affinity”. Further, in series [2], the Ki is 13.4 ± 0.0138 nM, the “Ratio SERT/DAT” value was found to be 4.8 and the “binding affinity at SERT (in words)” value is recorded as “strongest binding affinity”.
For `CCC(=O)[C@@H]1C2CCC(C[C@H]1c1ccc(C)cc1)CN2C` (relative stereo) [13a, 6-Methyl-4α-propionyl-3β-(p-tolyl)-6-azabicyclo[3.2.2]nonane], in series [1] (setting [3]), the IC50 is 1160 ± 240 nM. In series [1], the “binding affinity at DAT (in words)” value was “very low binding affinity”. Further, in series [2] (setting [4]), the Ki is greater than 2500 nM. Besides, the “binding affinity at SERT (in words)” value in series [2] is listed as “very low binding affinity”.
For the compound `CCC(=O)[C@@H]1C2CCC(C[C@H]1c1ccc3ccccc3c1)CN2C` (relative stereo) [13b, 6-Methyl-3β-(2-naphthyl)-4α-propionyl-6-azabicyclo[3.2.2]nonane], the IC50 in series [1] is 20.8 nM. In series [2], the Ki is 6.2 nM and the “Ratio SERT/DAT” value is listed as “— 0.3”.
`CCC(=O)[C@@H]1C2CCC(CN2)C[C@H]1c1ccc(C)cc1` (relative stereo) [18a, 4β-Propionyl-3α-(p-tolyl)-6-azabicyclo[3.2.2]nonane]: in series [1], the IC50 was 187 ± 55 nM and the “binding affinity at DAT (in words)” value is listed as “relatively strong binding”. In series [2], the Ki is 469 ± 32 nM, the “Ratio SERT/DAT” value was 2.5 and the “binding affinity at SERT (in words)” value was “relatively strong binding”.
The compound `CCC(=O)[C@@H]1C2CCC(CN2)C[C@@H]1c1ccc(C)cc1` (relative stereo) [compound 19, 4β-Propionyl-3β-(p-tolyl)-6-azabicyclo [3.2.2]nonane] registered an IC50 in series [1] of 24.9 ± 5.6 nM. Moreover, in series [2], the Ki came to 156 ± 26 nM and the “Ratio SERT/DAT” value is listed as 6.3.
Taken in the same sequence, the figures for `CCC(=O)C1C(c2ccc(Cl)cc2)CC2CCC1N(C)C2` (stereo not drawn) [12d, 3β-(4-Chlorophenyl)-6-methyl-4β-propionyl-6-azabicyclo[3.2.2]nonane] were 38.1 nM, 860 nM and 23.
Taken in the same sequence, the figures for `C=Cc1ccc(C2CC3CCC(C2C(=O)CC)N(C)C3)cc1` (stereo not drawn) [12e, 3β-(4-Ethenylphenyl)-6-methyl-4β-propionyl-6-azabicyclo[3.2.2]nonane] were 75 nM, 116 nM and 1.9.
The melting point is the temperature, or range, at which the solid turns liquid. Regarding `CCC(=O)C1C(c2ccc(C)cc2)C(c2ccccc2)C2CCC1N(C)C2` (stereo not drawn) [12h, 6-Methyl-2α-phenyl-4β-propionyl-3β-(p-tolyl)-6-azabicyclo[3.2.2]nonane], the melting point is 172 to 173 °C. The compound also gave an IC50 in series [1] of 4100 nM. In addition, the Ki in series [2] is greater than 2500 nM.
`CCC(=O)C1C(c2ccc(C)cc2)C(C)C2(C)CCC1N(C)C2` (stereo not drawn) [12i, 1,2α,6-Trimethyl-4β-propionyl-3β-(p-tolyl)-6-azabicyclo[3.2.2]nonane] gave an IC50 in series [1] of 2140 nM. Also, the Ki in series [2] was greater than 2500 nM.
Regarding `CCC(=O)C1C(c2ccc(C)cc2)C(c2ccccc2)C2(C)CCC1N(C)C2` (stereo not drawn) [12j, 1,6-Dimethyl-2α-phenyl-4β-propionyl-3β-(p-tolyl)-6-azabicyclo[3.2.2]-nonane], the melting point was in the range of 141 to 144 °C. This compound gave an IC50 in series [1] of 5600 nM. In series [2], this compound showed a Ki greater than 2500 nM.
On to `CCC(=O)C1C2CCC(CC1c1ccc(C)cc1)N(C)C2` (stereo not drawn) [compound 23, 6-Methyl-2α-propionyl-3β-(p-tolyl)-6-azabicyclo[3.2.2]nonane], for which the IC50 in series [1] (setting [3]) is 4700 ± 900 nM. In series [1], the “binding affinity at DAT (in words)” value is recorded as “very low binding affinity”.
Take `CCC(=O)C1C(c2ccc(C)cc2)CC2CCC1N(C)C2=O` (stereo not drawn) [compound 27, 6-Methyl-4β-propionyl-3β-(p-tolyl)-6-azabicyclo[3.2.2]nonan-7-one]: the IC50 in series [1] (setting [3]) was 7000 nM. The “binding affinity at DAT (in words)” value in series [1] is “very low binding affinity”. For the same compound, the Ki in series [2] (setting [4]) is greater than 2500 nM. In addition, the “binding affinity at SERT (in words)” value in series [2] was “very low binding affinity”.

The values are drawn from patent publication US7550588B2, “Homotropanes with central nervous system activity” (The Research Foundation of State University of New York, priority 2006, dated 2009).
